BindingDB's records for patent US12534477 (Hangzhou Zhongmeihuadong Pharmaceutical, 2026)

Target: T1, Ketohexokinase (Human, UniProt P50053)
T1 sequence (P50053 whole entry): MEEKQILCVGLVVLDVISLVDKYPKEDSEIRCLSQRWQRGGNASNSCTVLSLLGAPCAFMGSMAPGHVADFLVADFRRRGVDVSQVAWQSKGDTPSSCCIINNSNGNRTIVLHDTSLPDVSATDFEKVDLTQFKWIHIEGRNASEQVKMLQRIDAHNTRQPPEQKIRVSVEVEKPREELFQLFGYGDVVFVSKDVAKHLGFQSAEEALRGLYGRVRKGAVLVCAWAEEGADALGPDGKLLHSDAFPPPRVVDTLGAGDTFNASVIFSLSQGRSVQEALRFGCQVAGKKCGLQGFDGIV
Assay: Ketohexokinase Assay (KHK Assay)
Protocol: a) Kinase Reaction1. preparation of Dilution Buffer containing 50 mM hydroxyethylpiperazine […] (Hepes), 140 mM KCl, 3.5 mM MgCl2, and 0.01% bovine serum albumin (BSA), pH 7.4.2. A working solution of ketohexokinase at 2.5 times concentration was prepared with Dilution Buffer, with 50 nM ketohexokinase and 12.5 mM fructose.3. A working solution of adenosine triphosphate (ATP) at 2.5 times concentration was prepared with Dilution Buffer, with a concentration of 250 μM.4. Each compound was diluted starting at a concentration of 500 μM, 3-fold diluted for 9 concentration points. The final concentration of the compound in the reaction system started from 10 μM and the final concentration of dimethyl sulfoxide (DMSO) was 2%.5. A 96-well plate was prepared as a reaction plate, and was incubated at room temperature for 5 min after adding 6 μL ketohexokinase working solution at 2.5 times concentration to each well and further adding 3 μL compound working solution to each well.6. The first well of each row was a positive control for a compound, i.e. the same volume of the buffer was added to replace the compound […]. The last well was a negative control for the compound, i.e. the same volume of Dilution Buffer was added instead of the compound.7. 6 μL ATP working solution was added to each well in a 96-well reaction plate to initiate the kinase reaction. The kinase reaction was incubated in a constant temperature heater at 28° C. for 1 h.b) ADP-Glo assay1. A384 plate was prepared as a detection plate, and firstly 5 μL ADP-Glo reagent was added.2. 5 μL kinase reaction mixture from the reaction plate was added to each well and incubated in a constant temperature heater at 28° C. for 30 min.3. 10 μL kinase detection reagent was added to each well and incubated in a constant temperature heater at 28° C. for 30 min.4. The detection plate was placed in an EnVision multilabel reader to read the chemiluminescent signal.

Compared with C[C@H]1CCN1c1nc(N2CC3(C[C@@H]3C(=O)O)C2)c2c(n1)C(F)(F)CC2 [US12534477, Compound WX042], C[C@H]1CCN1c1nc(N2CC3(CC3C(=O)O)C2)c2c(n1)C(F)(F)CC2 (some centres undefined) [US12534477, Compound WX035] is 1.7-fold higher in IC50: 21 nM for the first, 36 nM for the second. The first is the more potent here.

Compared with C[C@H]1CCN1c1nc(N2CC3(C[C@H]3C(=O)O)C2)c2c(n1)C(F)(F)CC2 [US12534477, Compound WX043], C[C@H]1CCN1c1nc(Nc2ccc(C(=O)O)c(C(F)(F)F)c2)c2ccsc2n1 [US12534477, Compound WX013] is 1.6-fold lower in IC50: 28 nM for the first, 17 nM for the second.
